Test results as given in patent US20200239587A1, “SENSITIZATION OF TUMORS TO THERAPIES THROUGH ENDOGLIN ANTAGONISM” (Cedars-Sinai Medical Center, priority 2016, published 2020).
Entries after “also recorded” stand apart in the source; their conditions may differ.

Key:
[1] = test system: CD105 cell surface expression in human CW22Rv1 epithelia and mouse prostatic fibroblasts; experiment: 3D co-culture, CD105 cell surface expression by FACS; format: cell-based; details: enzalutamide vs vehicle; epithelial and fibroblastic populations
Protocol: After 72 hours, the cells were dissociated and assessed by FACS for CD105 expression as shown.
A modified version of the 3D organotypic co-culture system was performed in a collagen matrix similar to that previously reported (Stark et al., 1999, J Invest Dermatol 112, 681-691). Collagen matrix gels were prepared by mixing five volumes of rat tail collagen I with two volumes of matrigel (NCI), one volume of 10× DMEM medium (GE Healthcare Life Sciences), and one volume of FBS (Atlanta Biologicals), Rv1 and primary mouse prostatic fibroblasts were combined in a 1:3 ratio. Nylon squares were coated with collagen and placed on metal grids in a 6-well plate. Gel plugs (150 μl) were transferred onto the nylon squares and media was added to the level of the nylon mesh. After 72 hours, the cells were dissociated from the matrix with collagenase and dispersed for FACS analysis.
FACS experiments were performed with eBiosciences antibodies: anti-human Stro-1-FITC (340105), anti-human CD90-PE (12-0909-42), anti-human CD105-APC (17-1057-41), anti-mouse CD105-APC (17-1051-82), anti-human CD117-PE-Cy7 (15-1178-41), anti-human Ki67-PECy7 (25-5699-41), and anti-human EpCAM-PE (12-9326-41). All events were acquired on a BD LSRII flow cytometer in the Cedars-Sinai Medical Center FACS core installed with BD FACSDiva software. Files were analyzed using FlowJo software v10.2. […]

[2] = test system: PCa patient-derived xenograft (PDX); experiment: PCa patient-derived xenograft (PDX), immune-localization of CD105 and SFRP1; format: in vivo, mice
Description: See also FIG. 15. […] Scale bar represents 100 μm. […] See also FIG. 16.

C42B = experiment: MTT proliferation assay; format: cell-based, human; details: enzalutamide alone, absence of fibroblastic cells; p<0.0001
Protocol: (§1) CW22Rv1, C42B, and PC3 cells from ATCC were expanded as directed. Prostatectomy specimens from Cedars-Sinai Medical Center or the Greater Los Angeles Veterans Affairs were cultured to generate NAF and CAF cells using the same method, as C57BL/6 mouse wild-type prostatic fibroblasts were grown as previously reported (Franco et al., 2011, Cancer research 71, 1272-1281; Kiskowski et al., 2011, Cancer research 68, 4709-4718). TRC105 and M1043 were provided by TRACON Pharmaceuticals, Inc. (San Diego, Calif.). Enzalutamide (Xtandi) was purchased from Medivation (San Francisco, Calif.).
(§2) 3000 cells per 96-well were treated for 72 hours using 5 wells per treatment. MTT reagent (M6494, Life Technologies) was prepared as directed, incubated for one hour at 37° C., and analyzed using manufacturer's recommendations.

PC3 cells = experiment: MTT proliferation assay; format: cell-based, human; details: enzalutamide, absence of TRC105; no androgen receptor expression
Protocol: as §1, §2

Rv1 = experiment: MTT proliferation assay; format: cell-based, human; details: enzalutamide alone, absence of fibroblastic cells; p<0.0001
Protocol: as §1, §2

[3] = test system: tissue recombination orthotopic xenografts of primary human CAF and Rv1; experiment: Tissue recombination orthotopic xenografts of primary human CAF and Rv1; details: castrated mice given enzalutamide vs control intact mice
Description: FIG. 13A) Mice were orthotopically grafted with tissue recombinants of CW22Rv1 and CAF. […] FIG. 13B) H&E staining was followed by immune-localization for phosphorylated-histoneH3 (PH-H3), TUNEL, and chromogranin A (ChromA). Scale bar represents 32 μm. The mitotic (PH-H3) and cell death (TUNEL) indexes were plotted. n>5, error bars are mean+/−SD and *p<0.05, **p<0.01, ***p<0.001, compared to control unless otherwise indicated.
Male beige/SCID mice (Envigo), 6-8 or 10-12 weeks old, were used for subrenal capsule or prostatic orthotopic grafting, respectively, as previously described (Banerjee et al., 2014, Oncogene 33, 4924-4931; Hayward et al., 2001, Cancer Res 61, 8135-8142). In accordance with institutional animal care and use committee approval, 2×10^5 CW22Rv1 cells and 6×10^5 stromal cells were suspended in 20 μL type I collagen to be grafted into the subrenal capsule of mice castrated after seven days and sacrificed 21 days after castration. […] Tumor volume was calculated using the modified ellipsoid formula volume3=π/6×(width)2×length.
Paraffin embedded tissues were sectioned (5 μm thick) were subjected to hematoxylin and eosin (H&E) staining and immunohistochemistry as previously reported (Placencio et al., 2008, Cancer research 68, 4709-4718). […] Anti-phosphorylated histone H3 (06-570, Millipore), anti-CD105 (NCL-CD105, Leica Microsystems), anti-Ki67 (ab16667, Abcam), and anti-chromogranin A (sc-13090, Santa Cruz Biotechnology), anti-SFRP1 (601-401-475S, Rockland Immunochemicals), and anti-survivin (2808, Cell Signaling) antibodies were incubated at 4° C. overnight. Secondary antibody development was performed with Dako Cytomation mouse or rabbit kits and visualized using 3,3′-diaminobenzidine tetrahydrochloride substrate. TUNEL staining was performed per manufacturer's protocol (S7100, Millipore). Slides were scanned with a Leica Biosystems Aperio AT. Up to five fields per tissue were quantitated with Fiji (ImageJ) using a custom written macro. Mitotic and death index were quantitated by taking the total number of positively-stained nuclei divided by the total number of nuclei.

22Rv1 cells [4] = experiment: Cell counts with oligomycin and irradiation; format: cell-based, human; details: irrespective of dose of oligomycin, 72 hrs; p<0.01
Protocol: 22Rv1 cells were treated with indicated doses of ATPase inhibitor, oligomycin and exposed to 4Gy irradiation. Within each group, the left column is 0 Gy and the right column is 4 Gy. Cell counts were performed 72 hrs. following irradiation. (**p<0.01, ***p<0.001)

p53 in 22Rv1 cells = experiment: p53 status after irradiation; format: cell-based, human
Protocol: In search for an alternate process mediating TRC105 radiation sensitization the inventors examined changes in cell cycle. The impact of radiation on the cell cycle is well described, as causing a G2 cell cycle arrest that undergoes cell cycle redistribution. […] As SIRT1 has previously been reported to regulate p53 stability by de-acetylating p53, the inventors investigated p53 status with TRC105 treatment. 22Rv1 cells were treated with either TRC105 or 200 μM nicotinamide, an inhibitor of SIRT1 activity, prior to irradiation (4Gy). Cells were then collected at 0, 1, and 7 days post radiation to elucidate early and late p53 response. […] While loss-of-function p53 mutations are rare in prostate cancer, 90% of pancreatic cancers have p53 mutations. We therefore used two p53 mutant pancreatic cancer cell lines: HPAF-II and MIAPACA-2 to identify if TRC105 unresponsiveness to radiation was due to p53 loss of functionality.

22Rv1 cells [5] = experiment: Total cellular ATP; format: cell-based, human; details: with or without 4 Gy, 0-168 hours
Protocol: Cells were analyzed for mito-stress test by Seahorse-XF 168 hours following 4 Gy of radiation in the presence of IgG or TRC105. FIG. 26A) Basal respiration, non-mito respiration, proton leak, spare respiratory capacity, FIG. 26B) extracellular acidification rate (ECAR) and FIG. 26C) mitochondrial dependent ATP production were quantitated using Wave 2.3.0 analysis. Data are reported as mean+/−S.D. of a representative experiment (n=5) of 3 independent experiments. FIGS. 26A-26C, the first/left column depicts 0Gy+IgG, the second column depicts 0Gy+TRC105, the third column depicts 4Gy+IgG and the last/right column depicts 4Gy+TRC105. FIG. 26D) 22Rv1 cells treated with IgG, TRC105 or nicotinamide were irradiated (4 Gy). Total cellular ATP was measured 0, 24, 72, 120, and 168 hours post radiation. Within each group, the left column is IgG, middle column is TRC105 and the right column is nicotinamide. Data are reported as mean+/−S.D. of 3 independent experiments. (***p<0.001, ****p<0.0001).

Rv1 cells [6] = experiment: Neuroendocrine gene panel in Rv1 treated with recombinant SFRP1; format: cell-based, human; details: 0, 0.01, 0.1, 1 μg/ml SFRP1; p<0.002
Description: See also FIG. 15. […] Immunohistochemical localization of CD105 and SFRP1 in benign or PCa tissues are found in blood vessels (v), epithelia (e), and stroma (s), n=4. Scale bar represents 100 μm. FIG. 12E) Epithelial proliferation of human CW22Rv1, in 3D co-cultures with mouse prostatic fibroblasts, were co-stained for EpCam and Ki67 for FACS analysis. […] See also FIG. 16. […] Error bars are mean+/−SD and **p<0.01, ****p<0.0001, compared to control unless otherwise indicated.
Total RNA was extracted using the RNeasy kit (Qiagen). 1 μg RNA was used for cDNA synthesis using iSCRIPT cDNA synthesis kit (1708891, Bio-Rad). Quantitative RT-PCR was performed with 5 replicates using the Step One Real-Time PCR system (Applied Biosystems). Gene mRNA expression was normalized to GAPDH. Primer sequences can be found in the Table 1. For RNA-sequencing, Ion Proton AmpliSeq Transcriptome RNA Sequencing was performed achieving an average of 3M reads. We mapped an average of 88% of the reads to the human genome with Torrent Suite version 4.4.2.

Rv1 cells [7] = experiment: Rv1 proliferation with recombinant SFRP1; format: cell-based, human; details: same doses of SFRP1, 72 hours
Description: Associations between copy number (CN), gene expression (GE), and methylation (Me) are denoted by lines from one node to another (p<0.01).

[8] = test system: SIRT1 protein expression in 22Rv1; experiment: Western blot for SIRT1 after BMP treatment; format: cell-based, human; details: serum-starved, 50 ng/ml BMP4 for 4 hours
Protocol: FIG. 20A) Western blot for SIRT1 expression measured in 22Rv1 cells following serum starvation and treatment with 50 ng/ml BMP4 for 4 hours. Phosphorylated Smad1/5 and β-actin was measured concurrently. FIG. 20B) SIRT1 mRNA expression was measured in CW22Rv1 under serum free conditions with 50 ng/ml BMP4, IgG in the context of increasing doses of TRC105 (0.05, 0.1, 0.5, 1, 5, or 10 μg/ml). SIRT1 mRNA expression was normalized to GAPDH and to serum treated control. FIG. 20C) Fold Change of SIRT1 mRNA in benign prostate and prostate cancer patients, obtained from R2-Genomics analysis is expressed (n=95). FIG. 20D) Immunohistochemical localization for SIRT1 expression in benign and prostate cancer tissues is indicated by arrows (Human Protein Atlas). The “e” and “s” indicate epithelia and stromal compartments in the tissues, respectively. FIG. 20E) SIRT1 mRNA expression was measured 72 hours following irradiation of 22Rv1 in a dose range of 0-6 Gy. FIG. 20F) SIRT1 mRNA expression was measured in a time course 0-72 hours following 4 Gy irradiation. SIRT1 mRNA expression was normalized to GAPDH and to untreated, 0 Gy. Data are reported as a mean+/−S.D. of 3 independent experiments (***p<0.001, ****p<0.0001).

CNC(=O)c1ccc(N2C(=S)N(c3ccc(C#N)c(C(F)(F)F)c3)C(=O)C2(C)C)cc1F [enzalutamide, reference compound]
CD105 cell surface expression [1]: three-fold increase | SFRP1 expression in PDX ([2]; enzalutamide treatment): upregulated | CD105 expression in PDX tissues ([2]; following 4 days of enzalutamide administration): elevated in both epithelial and CAF populations | cell proliferation (MTT) (C42B): significantly reduced cell proliferation | viability (MTT) (PC3 cells): insensitive | cell proliferation (MTT) (Rv1): significantly reduced cell proliferation; also recorded: sensitive to enzalutamide treatment | cell turnover by phosphorylated-histone H3 and TUNEL [3]: statistically comparable to control intact mice | tumor volume [3]: statistically comparable to control intact mice; also recorded: did not significantly decrease tumor growth

CC[C@H]1/C=C/C=C/C[C@@H](C)[C@H](O)[C@@](C)(O)C(=O)[C@@H](C)[C@H](O)[C@@H](C)C(=O)[C@@H](C)[C@H](O)[C@@H](C)/C=C/C(=O)O[C@@H]2[C@H](C)[C@H](CC1)O[C@]1(CC[C@H](C)[C@H](C[C@@H](C)O)O1)[C@H]2C [oligomycin]
cell proliferation by cell counting (22Rv1 cells [4]): significantly reduced cell proliferation

NC(=O)c1cccnc1 [nicotinamide, reference compound]
acetylated and total-p53 (p53 in 22Rv1 cells; by 7 days post radiation): markedly increased | anti-apoptotic protein Bc1-2 (p53 in 22Rv1 cells; prior to 4Gy irradiation): decrease in the anti-apoptotic protein Bc1-2 | p21 (p53 in 22Rv1 cells; prior to 4Gy irradiation): increase in p21 | acetylated p53 (p53 in 22Rv1 cells; treatment prior to 4Gy, nicotinamide 200 μM): increase in acetylated p53 | cellular ATP stores (22Rv1 cells [5]): depleted regardless of radiation treatment

B1: SFRP1: human recombinant SFRP1 (Secreted Frizzled Related Protein 1) (protein, UniProt Q8N474 32-314, looked up)
Secreted frizzled-related …: SEYDYVSFQSDIGPYQSGRFYTKPPQCVDIPADLRLCHNVGYKKMVLPNLLEHETMAEVKQQASSWVPLLNKNCHAGTQVFLCSLFAPVCLDRPIYPCRWLCEAVRDSCEPVMQFFGFYWPEMLKCDKFPEGDVCIAMTPPNATEASKPQGTTVCPPCDNELKSEAIIEHLCASEFALRMKIKEVKKENGDKKIVPKKKKPLKLGPIKKKDLKKLVLYLKNGADCPCHQLDNLSHHFLIMGRKVKSQYLLTAIHKWDKKNKEFKNFMKKMKNHECPTFQSVFK
expression of panel of 9 PCa NED genes (Rv1 cells [6]): significant induction of a panel of 9 PCa NED genes in a dose dependent manner | epithelial proliferation (Rv1 cells [7]): no effect

B2: BMP: bone morphogenic protein (BMP4, 50 ng/ml) used to stimulate 22Rv1 cells (protein, UniProt P12644 293-408, looked up)
Bone morphogenetic protein 4: SPKHHSQRARKKNKNCRRHSLYVDFSDVGWNDWIVAPPGYQAFYCHGDCPFPLADHLNSTNHAIVQTLVNSVNSSIPKACCVPTELSAISMLYLDEYDKVVLKNYQEMVVEGCGCR
SIRT1 protein expression [8]: induced SIRT1 protein expression
